# Patent US11446287B2, “Compounds and methods for EP300 or CBP modulation and indications therefor” (Opna Immuno-Oncology SA, priority 2019, dated 2022)
# Biological target: T1, Recombinant human BRD4 containing dual bromodomains (BRD4-BD12 (1-477)) (Homo sapiens, UniProt O60885)
# T1 construct: Recombinant human BRD4 containing dual bromodomains (BRD4-BD12 (1-477)); made in house; host or cells: E. coli BL21-CodonPlus (DE3), modified pET vector
# Experiment: BRD4 Alphascreen binding assay
# Method in brief: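 AlphaScreen proximity between Ni-chelate-bound BRD4-BD12 (1-477) and streptavidin-captured H4 K5/K8/K12/K16-acetyl peptide measured after 1 h room-temperature compound incubation and 30 min with 7.5 μg/ml beads. Buffer: 50 mM HEPES pH 7.5, 50 mM NaCl, 0.01% BSA, 0.01% Triton X-100; data plate-normalized and four-parameter fit for IC50.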
row,SMILES,IC50
1,"Cc1noc(C)c1-c1cnc2c(c1)c(-c1ccc(C(=O)O)cc1)cn2[C@@H](C)c1ccccn1 [P-0001, (S)-4-(5-(3,5-dimethylisoxazol-4-yl)-1-(1-(pyridin-2-yl)ethyl)-1H-pyrrolo[2,3-b]pyridin-3-yl)benzoic acid]",8 to 1000 µM
2,"Cc1noc(C)c1-c1cnc2c(c1)c(-c1ccc(C(=O)O)cc1)cn2C(c1ccccn1)C1CCCC1 (stereo not shown) [P-0002, 4-(1-(cyclopentyl(pyridin-2-yl)methyl)-5-(3,5-dimethylisoxazol-4-yl)-1H-pyrrolo[2,3-b]pyridin-3-yl)benzoic acid]",0.0001 to 1 µM
3,"Cc1noc(C)c1-c1cnc2c(c1)c(-c1ccccc1)cn2C(c1ccccn1)C1CCCC1 (stereo not shown) [P-0003, 4-(1-(cyclopentyl(pyridin-2-yl)methyl)-3-phenyl-1H-pyrrolo[2,3-b]pyridin-5-yl)-3,5-dimethylisoxazole]",8 to 1000 µM
4,"Cc1noc(C)c1-c1cnc2c(c1)c(-c1ccc(C(=O)O)cc1)cn2C(c1ccccn1)C1CCCCC1 (stereo not shown) [P-0004, 4-(1-(cyclohexyl(pyridin-2-yl)methyl)-5-(3,5-dimethylisoxazol-4-yl)-1H-pyrrolo[2,3-b]pyridin-3-yl)benzoic acid]",8 to 1000 µM
5,"COC(=O)c1ccc(-c2cn(S(=O)(=O)c3ccc(C)cc3)c3ncc(-c4c(C)noc4C)cc23)cc1 [P-0005, methyl 4-(5-(3,5-dimethylisoxazol-4-yl)-1-tosyl-1H-pyrrolo[2,3-b]pyridin-3-yl)benzoate]",8 to 1000 µM
6,"Cc1noc(C)c1-c1cnc2c(c1)c(-c1ccnc(C(=O)O)c1)cn2S(=O)(=O)c1ccccc1 [P-0055, 4-(5-(3,5-dimethylisoxazol-4-yl)-1-(phenylsulfonyl)-1H-pyrrolo[2,3-b]pyridin-3-yl)picolinic acid]",0.0001 to 1 µM
7,"COc1cccc(Cn2cc(-c3cccc(C(=O)O)c3)c3cc(-c4c(C)noc4C)cnc32)c1 [P-0056, 3-(5-(3,5-dimethylisoxazol-4-yl)-1-(3-methoxybenzyl)-1H-pyrrolo[2,3-]pyridin-3-yl)benzoic acid]",1 to 8 µM
8,"COc1cccc(Cn2cc(-c3ccnc(C(=O)O)c3)c3cc(-c4c(C)noc4C)cnc32)c1 [P-0057, 4-(5-(3,5-dimethylisoxazol-4-yl)-1-(3-methoxybenzyl)-1H-pyrrolo[2,3-b]pyridin-3-yl)picolinic acid]",1 to 8 µM
9,"Cc1noc(C)c1-c1cnc2c(c1)c(-c1cccc(C(=O)O)c1)cn2C(C1CC1)C1CC1 [P-0058, 3-(1-(dicyclopropylmethyl)-5-(3,5-dimethylisoxazol-4-yl)-1H-pyrrolo[2,3-b]pyridin-3-yl)benzoic acid]",8 to 1000 µM
10,"Cc1noc(C)c1-c1cnc2c(c1)c(-c1cccc(C(=O)O)c1)cn2Cc1cccc(OC(F)(F)F)c1 [P-0059, 3-(5-(3,5-dimethylisoxazol-4-yl)-1-(3-(trifluoromethoxy)benzyl)-1H-pyrrolo[2,3-b]pyridin-3-yl)benzoic acid]",8 to 1000 µM
11,"Cc1noc(C)c1-c1cnc2c(c1)c(-c1cccc(C(=O)O)c1)cn2Cc1cccc(F)c1 [P-0060, 3-(5-(3,5-dimethylisoxazol-4-yl)-1-(3-fluorobenzyl)-1H-pyrrolo[2,3-b]pyridin-3-yl)benzoic acid]",1 to 8 µM
12,"Cc1noc(C)c1-c1cnc2c(c1)c(-c1cccc(C(=O)O)c1)cn2Cc1cccc(Cl)c1 [P-0061, 3-(1-(3-chlorobenzyl)-5-(3,5-dimethylisoxazol-4-yl)-1H-pyrrolo[2,3-b]pyridin-3-yl)benzoic acid]",8 to 1000 µM
13,"Cc1cccc(Cn2cc(-c3cccc(C(=O)O)c3)c3cc(-c4c(C)noc4C)cnc32)c1 [P-0062, 3-(5-(3,5-dimethylisoxazol-4-yl)-1-(3-methylbenzyl)-1H-pyrrolo[2,3-b]pyridin-3-yl)benzoic acid]",8 to 1000 µM
14,"Cc1noc(C)c1-c1cnc2c(c1)c(-c1cccc(C(=O)O)c1)cn2Cc1cccc(C(F)(F)F)c1 [P-0063, 3-(5-(3,5-dimethylisoxazol-4-yl)-1-(3-(trifluoromethyl)benzyl)-1H-pyrrolo[2,3-b]pyridin-3-yl)benzoic acid]",8 to 1000 µM
15,"Cc1noc(C)c1-c1cnc2c(CC3CCC3)cn(-c3ccc(C(=O)O)cc3OC(F)F)c2c1 [P-0064, 4-(3-(cyclobutylmethyl)-6-(3,5-dimethylisoxazol-4-yl)-1H-pyrrolo[3,2-b]pyridin-1-yl)-3-(difluoromethoxy)benzoic acid]",1 to 8 µM
16,"Cc1noc(C)c1-c1cnc2c(CC3CC3)cn(-c3ccnc(C(=O)O)c3)c2c1 [P-0065, 4-(3-(cyclopropylmethyl)-6-(3,5-dimethylisoxazol-4-yl)-1H-pyrrolo[3,2-b]pyridin-1-yl)picolinic acid]",1 to 8 µM
17,"Cc1noc(C)c1-c1cnc2c(CC3CCC3)cn(-c3ccc(C(=O)O)cc3OC(F)(F)F)c2c1 [P-0066, 4-(3-(cyclobutylmethyl)-6-(3,5-dimethylisoxazol-4-yl)-1H-pyrrolo[3,2-b]pyridin-1-yl)-3-(trifluoromethoxy)benzoic acid]",8 to 1000 µM

row,SMILES,IC50
1,"COc1cc(C(=O)O)cc(OC)c1-n1cc(CC2CCC2)c2ncc(-c3c(C)noc3C)cc21 [P-0067, 4-(3-(cyclobutylmethyl)-6-(3,5-dimethylisoxazol-4-yl)-1H-pyrrolo[3,2-b]pyridin-1-yl)-3,5-dimethoxybenzoic acid]",1 to 8 µM
2,"Cc1noc(C)c1-c1cnc2c(CC3CCC3)cn(-c3ccc(S(C)(=O)=O)c(F)c3)c2c1 [P-0068, 4-(3-(cyclobutylmethyl)-1-(3-fluoro-4-(methylsulfonyl)phenyl)-1H-pyrrolo[3,2-b]pyridin-6-yl)-3,5-dimethylisoxazole]",8 to 1000 µM
3,"Cc1noc(C)c1-c1cnc2c(c1)c(C#CC(=O)O)cn2Cc1ccccc1 [P-0069, 3-(1-benzyl-5-(3,5-dimethylisoxazol-4-yl)-1H-pyrrolo[2,3-b]pyridin-3-yl)propiolic acid]",8 to 1000 µM
4,"Cc1noc(C)c1-c1cnc2c(c1)c(-c1ccc(C(=O)O)cc1OC(F)(F)F)cn2[C@@H](C)c1ccccn1 [P-0070, (S)-4-(5-(3,5-dimethylisoxazol-4-yl)-1-(1-(pyridin-2-yl)ethyl)-1H-pyrrolo[2,3-b]pyridin-3-yl)-3-(trifluoromethoxy)benzoic acid]",8 to 1000 µM
5,"Cc1noc(C)c1-c1cnc2c(c1)c(-c1ccc(C(=O)O)cc1OC(F)F)cn2[C@@H](C)c1ccccn1 [P-0071, (S)-3-(difluoromethoxy)-4-(5-(3,5-dimethylisoxazol-4-yl)-1-(1-(pyridin-2-yl)ethyl)-1H-pyrrolo[2,3-b]pyridin-3-yl)benzoic acid]",1 to 8 µM
6,"Cc1noc(C)c1-c1cnc2c(c1)c(-c1cccc(C(=O)O)c1)cn2C(C1CCC1)C1CCC1 [P-0072, 3-(1-(dicyclobutylmethyl)-5-(3,5-dimethylisoxazol-4-yl)-1H-pyrrolo[2,3-b]pyridin-3-yl)benzoic acid]",1 to 8 µM
7,"Cc1noc(C)c1-c1cnc2c(c1)c(-c1cccc(C(=O)O)c1)cn2C(c1ccccn1)C1CCC1 (stereo not shown) [P-0073, 3-(1-(cyclobutyl(pyridin-2-yl)methyl)-5-(3,5-dimethylisoxazol-4-yl)-1H-pyrrolo[2,3-b]pyridin-3-yl)benzoic acid]",8 to 1000 µM
8,"Cc1noc(C)c1-c1cnc2c(CC3CCC3)cn(-c3c(Cl)cc(C(=O)O)cc3Cl)c2c1 [P-0074, 3,5-dichloro-4-(3-(cyclobutylmethyl)-6-(3,5-dimethylisoxazol-4-yl)-1H-pyrrolo[3,2-b]pyridin-1-yl)benzoic acid]",8 to 1000 µM
9,"Cc1cc(C(=O)O)cnc1-n1cc(CC2CCC2)c2ncc(-c3c(C)noc3C)cc21 [P-0075, 6-(3-(cyclobutylmethyl)-6-(3,5-dimethylisoxazol-4-yl)-1H-pyrrolo[3,2-b]pyridin-1-yl)-5-methylnicotinic acid]",8 to 1000 µM
10,"Cc1noc(C)c1-c1cnc2c(CC3CCC3)cn(-c3ccc(C#N)cc3)c2c1 [P-0076, 4-(3-(cyclobutylmethyl)-6-(3,5-dimethylisoxazol-4-yl)-1H-pyrrolo[3,2-b]pyridin-1-yl)benzonitrile]",8 to 1000 µM
11,"Cc1noc(C)c1-c1cnc2c(CC3CCC3)cn(-c3ccnc(C#N)c3)c2c1 [P-0077, 4-(3-(cyclobutylmethyl)-6-(3,5-dimethylisoxazol-4-yl)-1H-pyrrolo[3,2-b]pyridin-1-yl)picolinonitrile]",1 to 8 µM
12,"Cc1noc(C)c1-c1cnc2c(c1)c(-c1cccc(C(=O)NC#N)c1)cn2Cc1ccccc1 [P-0078, 3-(1-benzyl-5-(3,5-dimethylisoxazol-4-yl)-1H-pyrrolo[2,3-b]pyridin-3-yl)-N-cyanobenzamide]",1 to 8 µM
13,"Cc1noc(C)c1-c1cnc2c(c1)c(-c1cccc(C(=O)NO)c1)cn2Cc1ccccc1 [P-0079, 3-(1-benzyl-5-(3,5-dimethylisoxazol-4-yl)-1H-pyrrolo[2,3-b]pyridin-3-yl)-N-hydroxybenzamide]",1 to 8 µM
14,"Cc1noc(C)c1-c1cnc2c(c1)c(-c1ccc(C(=O)O)cc1)cn2C(C)c1ccccn1 (stereo not shown) [P-0080, 4-(5-(3,5-dimethylisoxazol-4-yl)-1-(1-(pyridin-2-yl)ethyl)-1H-pyrrolo[2,3-b]pyridin-3-yl)benzoic acid]",1 to 8 µM
15,"Cc1noc(C)c1-c1cnc2c(c1)c(-c1cccc(S(N)(=O)=O)c1)cn2Cc1ccccc1 [P-0081, 3-(1-benzyl-5-(3,5-dimethylisoxazol-4-yl)-1H-pyrrolo[2,3-b]pyridin-3-yl)benzenesulfonamide]",1 to 8 µM
16,"CNS(=O)(=O)c1cccc(-c2cn(Cc3ccccc3)c3ncc(-c4c(C)noc4C)cc23)c1 [P-0082, 3-(1-benzyl-5-(3,5-dimethylisoxazol-4-yl)-1H-pyrrolo[2,3-b]pyridin-3-yl)-N-methylbenzenesulfonamide]",1 to 8 µM
17,"Cc1noc(C)c1-c1cnc2c(c1)c(-c1cccc(S(=O)(=O)NC3CC3)c1)cn2Cc1ccccc1 [P-0083, 3-(1-benzyl-5-(3,5-dimethylisoxazol-4-yl)-1H-pyrrolo[2,3-b]pyridin-3-yl)-N-cyclopropylbenzenesulfonamide]",1 to 8 µM
